Assay results taken from patent US20230303565A1, “PESTICIDALLY ACTIVE HETEROCYCLIC DERIVATIVES WITH SULFUR CONTAINING SUBSTITUENTS” (SYNGENTA CROP PROTECTION AG, priority 2020, published 2023).

How the values were obtained:
Assay type in all cases: in vivo
[1] = tested on: Chilo suppressalis (Striped Rice Stemborer); test: Activity against Chilo suppressalis (striped rice stemborer), artificial diet in 24-well plates; conditions: 144 h, application rate of 200 ppm, L2 larvae, 6 days after infestation, in comparison to untreated samples, read-out: control (at least one of mortality, anti-feedant effect, growth inhibition)
Experimental: Example B1: Activity Against Chilo suppressalis (Striped Rice Stemborer)
24-well microtiter plates with artificial diet were treated with aqueous test solutions prepared from 10′000 ppm DMSO stock solutions by pipetting. After drying, the plates were infested with L2 larvae (6-8 per well). The samples were assessed for mortality, anti-feeding effect, and growth inhibition in comparison to untreated samples 6 days after infestation. Control of Chilo suppressalis by a test sample is given when at least one of the categories mortality, anti-feedant effect, and growth inhibition is higher than the untreated sample.

[2] = tested on: Diabrotica Balteata (Corn Root Worm); test: Activity against Diabrotica balteata (corn root worm), maize sprouts on agar; conditions: 96 h, application rate of 200 ppm, L2 larvae, 4 days after infestation, in comparison to untreated samples, read-out: effect in at least one of the two categories (mortality or growth inhibition)
Experimental: Example B2: Activity Against Diabrotica Balteata (Corn Root Worm)
Maize sprouts placed onto an agar layer in 24-well microtiter plates were treated with aqueous test solutions prepared from 10′000 ppm DMSO stock solutions by spraying. After drying, the plates were infested with L2 larvae (6 to 10 per well). The samples were assessed for mortality and growth inhibition in comparison to untreated samples 4 days after infestation.

[3] = tested on: Myzus persicae (Green Peach Aphid); test: Activity against Myzus persicae (green peach aphid), feeding/contact activity, sunflower leaf discs; conditions: foliar, 144 h, application rate of 200 ppm, aphid population of mixed ages, 6 days after infestation
Experimental: Example B5: Activity Against Myzus persicae (Green Peach Aphid) Feeding/Contact Activity
Sunflower leaf discs were placed onto agar in a 24-well microtiter plate and sprayed with aqueous test solutions prepared from 10′000 ppm DMSO stock solutions. After drying, the leaf discs were infested with an aphid population of mixed ages. The samples were assessed for mortality 6 days after infestation.

[4] = tested on: Plutella xylostella (Diamond Back Moth); test: Activity against Plutella xylostella (diamond back moth), artificial diet in 24-well plates; conditions: 192 h, application rate of 200 ppm, Plutella eggs, 8 days after infestation, in comparison to untreated samples, read-out: effect in at least one of the two categories (mortality or growth inhibition)
Experimental: Example B6: Activity Against Plutella xylostella (Diamond Back Moth)
24-well microtiter plates with artificial diet were treated with aqueous test solutions prepared from 10′000 ppm DMSO stock solutions by pipetting. After drying, Plutella eggs were pipetted through a plastic stencil onto a gel blotting paper and the plate was closed with it. The samples were assessed for mortality and growth inhibition in comparison to untreated samples 8 days after infestation.

[5] = tested on: Spodoptera littoralis (Egyptian Cotton Leaf Worm); test: Activity against Spodoptera littoralis (Egyptian cotton leaf worm), cotton leaf discs; conditions: foliar, 72 h, application rate of 200 ppm, L1 larvae, 3 days after infestation, in comparison to untreated samples, read-out: control (at least one of mortality, anti-feedant effect, growth inhibition)
Experimental: Example B7: Activity Against Spodoptera littoralis (Egyptian Cotton Leaf Worm)
Cotton leaf discs were placed onto agar in 24-well microtiter plates and sprayed with aqueous test solutions prepared from 10′000 ppm DMSO stock solutions. After drying the leaf discs were infested with five L1 larvae. The samples were assessed for mortality, anti-feeding effect, and growth inhibition in comparison to untreated samples 3 days after infestation. Control of Spodoptera littoralis by a test sample is given when at least one of the categories mortality, anti-feedant effect, and growth inhibition is higher than the untreated sample.

[6] = tested on: Carpocapsa (Cydia) Pomonella (Codling Moth); test: Activity against Carpocapsa (Cydia) pomonella (codling moth), larvicide, feeding/contact, diet cubes; conditions: 336 h, application rate of 12.5 ppm, L1 larvae, 14 days after infestation, 26-27° C.
Experimental: Example B9: Activity Against Carpocapsa (Cydia) Pomonella (Codling Moth)) Larvicide, Feeding/Contact
Diet cubes coated with paraffin were sprayed with diluted test solutions in an application chamber. After drying off the treated cubes (10 replicates) were infested with 1 L1 larvae. Samples were incubated at 26-27° C. and checked 14 days after infestation for mortality and growth inhibition.

[7] = tested on: Frankliniella occidentalis (Western Flower Thrips); test: Activity against Frankliniella occidentalis (western flower thrips), feeding/contact activity, sunflower leaf discs; conditions: foliar, 168 h, application rate of 200 ppm, population of mixed ages, 7 days after infestation
Experimental: Example B4: Activity Against Frankliniella occidentalis (Western Flower Thrips) Feeding/Contact Activity
Sunflower leaf discs were placed on agar in 24-well microtiter plates and sprayed with aqueous test solutions prepared from […] stock solutions. After drying the leaf discs were infested with a Frankliniella population of mixed ages. The samples were assessed for mortality 7 days after infestation.

[8] = tested on: Euschistus heros (Neotropical Brown Stink Bug); test: Activity against Euschistus heros (neotropical brown stink bug), soybean leaves on agar; conditions: 120 h, application rate of 200 ppm, N2 nymphs, 5 days after infestation, in comparison to untreated samples, read-out: effect in at least one of the two categories (mortality or growth inhibition)
Experimental: Example B3: Activity Against Euschistus heros (Neotropical Brown Stink Bug)
Soybean leaves on agar in 24-well microtiter plates were sprayed with aqueous test solutions prepared from 10′000 ppm DMSO stock solutions. After drying the leaves were infested with N2 nymphs. The samples were assessed for mortality and growth inhibition in comparison to untreated samples 5 days after infestation.

[9] = tested on: Bemisia tabaci (Cotton White Fly); test: Activity against Bemisia tabaci (cotton white fly), cotton leaf discs; conditions: foliar, 144 h, application rate of 200 ppm, adult white flies, 6 days after incubation
Experimental: Example B8: Activity Against Bemisia tabaci (Cotton White Fly)
Cotton leaf discs were placed on agar in 24-well microtiter plates and sprayed with aqueous test solutions prepared from 10′000 ppm DMSO stock solutions. After drying the leaf discs were infested with adult white flies. The samples were checked for mortality 6 days after incubation.

CCS(=O)(=O)c1c(N2Cc3ccc(S(=O)(=O)C4CC4)cc3C2=O)nc2ccc(C(F)(F)F)cn12 [P8, 6-cyclopropylsulfonyl-2-[3-ethylsulfonyl-6-(trifluoromethyl)imidazo[1,2-a]pyridin-2-yl]isoindolin-1-one]
≥ 80%: percent control (mortality, anti-feedant effect or growth inhibition) at 200 ppm [1] | percent effect (mortality or growth inhibition) at 200 ppm [2] | mortality at 200 ppm [3] | percent effect (mortality or growth inhibition) at 200 ppm [4] | percent control (mortality, anti-feedant effect or growth inhibition) at 200 ppm [5] | mortality at 12.5 ppm [6]

CCS(=O)(=O)c1c(N2Cc3ccc(C4(C#N)CC4)cc3C2=O)nc2ccc(C(F)(F)F)cn12 [P1, 1-[2-[3-ethylsulfonyl-6-(trifluoromethyl)imidazo[1,2-a]pyridin-2-yl]-3-oxo-isoindolin-5-yl]cyclopropanecarbonitrile]
≥ 80%: percent control (mortality, anti-feedant effect or growth inhibition) at 200 ppm [1] | percent effect (mortality or growth inhibition) at 200 ppm [2] | mortality at 200 ppm [7] | mortality at 200 ppm [3] | percent effect (mortality or growth inhibition) at 200 ppm [8] | percent effect (mortality or growth inhibition) at 200 ppm [4] | percent control (mortality, anti-feedant effect or growth inhibition) at 200 ppm [5] | mortality at 12.5 ppm [6]

CCS(=O)(=O)c1c(N2Cc3ccc(C4(C#N)CC4)cc3C2=O)nc2ccc(C(C)(F)F)cn12 [P4, 1-[2-[6-(1,1-difluoroethyl)-3-ethylsulfonyl-imidazo[1,2-a]pyridin-2-yl]-3-oxo-isoindolin-5-yl]cyclopropanecarbonitrile]
≥ 80%: percent control (mortality, anti-feedant effect or growth inhibition) at 200 ppm [1] | mortality at 200 ppm [9] | percent effect (mortality or growth inhibition) at 200 ppm [2] | mortality at 200 ppm [3] | percent effect (mortality or growth inhibition) at 200 ppm [4] | percent control (mortality, anti-feedant effect or growth inhibition) at 200 ppm [5] | mortality at 12.5 ppm [6]

CCS(=O)(=O)c1c(N2Cc3ccc(C4(C#N)CC4)cc3C2=O)nc2ccc(C(C)(C)C#N)cn12 [P7, 1-[2-[6-(1-cyano-1-methyl-ethyl)-3-ethylsulfonyl-imidazo[1,2-a]pyridin-2-yl]-3-oxo-isoindolin-5-yl]cyclopropanecarbonitrile]
≥ 80%: percent control (mortality, anti-feedant effect or growth inhibition) at 200 ppm [1] | percent effect (mortality or growth inhibition) at 200 ppm [2] | percent effect (mortality or growth inhibition) at 200 ppm [4] | percent control (mortality, anti-feedant effect or growth inhibition) at 200 ppm [5]

CCS(=O)(=O)c1c(N2Cc3ncc(C4(C#N)CC4)cc3C2=O)nc2ccc(C(F)(F)F)cn12 [P2, 1-[6-[3-ethylsulfonyl-6-(trifluoromethyl)imidazo[1,2-a]pyridin-2-yl]-5-oxo-7H-pyrrolo[3,4-b]pyridin-3-yl]cyclopropanecarbonitrile]
≥ 80%: percent control (mortality, anti-feedant effect or growth inhibition) at 200 ppm [1] | percent effect (mortality or growth inhibition) at 200 ppm [2] | mortality at 200 ppm [7] | mortality at 200 ppm [3] | percent effect (mortality or growth inhibition) at 200 ppm [8] | percent effect (mortality or growth inhibition) at 200 ppm [4] | percent control (mortality, anti-feedant effect or growth inhibition) at 200 ppm [5] | mortality at 12.5 ppm [6]

CCS(=O)(=O)c1c(N2Cc3ccc(C4CC4)cc3C2=O)nc2ccc(C(F)(F)F)cn12 [P12, 6-cyclopropyl-2-[3-ethylsulfonyl-6-(trifluoromethyl)imidazo[1,2-a]pyridin-2-yl]isoindolin-1-one]
≥ 80%: percent control (mortality, anti-feedant effect or growth inhibition) at 200 ppm [1] | percent effect (mortality or growth inhibition) at 200 ppm [2] | percent effect (mortality or growth inhibition) at 200 ppm [4] | percent control (mortality, anti-feedant effect or growth inhibition) at 200 ppm [5]

CCS(=O)(=O)c1c(N2Cc3ccc(C4(C#N)CC4)cc3C2=O)nc2ccc(C3CC3)cn12 [P5, 1-[2-(6-cyclopropyl-3-ethylsulfonyl-imidazo[1,2-a]pyridin-2-yl)-3-oxo-isoindolin-5-yl]cyclopropanecarbonitrile]
≥ 80%: percent control (mortality, anti-feedant effect or growth inhibition) at 200 ppm [1] | percent effect (mortality or growth inhibition) at 200 ppm [2] | percent effect (mortality or growth inhibition) at 200 ppm [4] | percent control (mortality, anti-feedant effect or growth inhibition) at 200 ppm [5]

CCS(=O)(=O)c1c(N2Cc3cnc(C4CC4)cc3C2=O)nc2ccc(C(F)(F)F)cn12 [P10, 6-cyclopropyl-2-[3-ethylsulfonyl-6-(trifluoromethyl)imidazo[1,2-a]pyridin-2-yl]-3H-pyrrolo[3,4-c]pyridin-1-one]
≥ 80%: percent control (mortality, anti-feedant effect or growth inhibition) at 200 ppm [1] | percent effect (mortality or growth inhibition) at 200 ppm [2] | percent effect (mortality or growth inhibition) at 200 ppm [4] | percent control (mortality, anti-feedant effect or growth inhibition) at 200 ppm [5]

CCS(=O)(=O)c1c(N2Cc3ccc(OC(C)(C)C#N)cc3C2=O)nc2ccc(C(F)(F)F)cn12 [P9, 2-[2-[3-ethylsulfonyl-6-(trifluoromethyl)imidazo[1,2-a]pyridin-2-yl]-3-oxo-isoindolin-5-yl]oxy-2-methyl-propanenitrile]
≥ 80%: percent control (mortality, anti-feedant effect or growth inhibition) at 200 ppm [1] | mortality at 200 ppm [9] | percent effect (mortality or growth inhibition) at 200 ppm [2] | mortality at 200 ppm [3] | percent effect (mortality or growth inhibition) at 200 ppm [4] | percent control (mortality, anti-feedant effect or growth inhibition) at 200 ppm [5]

CCS(=O)(=O)c1c(N2Cc3ccc(C4(C#N)CC4)cc3C2=O)nc2ccc(C3(C#N)CC3)cn12 [P6, 1-[2-[6-(1-cyanocyclopropyl)-3-ethylsulfonyl-imidazo[1,2-a]pyridin-2-yl]-3-oxo-isoindolin-5-yl]cyclopropanecarbonitrile]
≥ 80%: percent control (mortality, anti-feedant effect or growth inhibition) at 200 ppm [1] | mortality at 200 ppm [9] | percent effect (mortality or growth inhibition) at 200 ppm [2] | mortality at 200 ppm [7] | mortality at 200 ppm [3] | percent effect (mortality or growth inhibition) at 200 ppm [4] | percent control (mortality, anti-feedant effect or growth inhibition) at 200 ppm [5] | mortality at 12.5 ppm [6]

CCS(=O)(=O)c1c(N2Cc3ncc(C4CC4)cc3C2=O)nc2ccc(C(F)(F)F)cn12 [P11, 3-cyclopropyl-6-[3-ethylsulfonyl-6-(trifluoromethyl)imidazo[1,2-a]pyridin-2-yl]-7H-pyrrolo[3,4-b]pyridin-5-one]
≥ 80%: percent control (mortality, anti-feedant effect or growth inhibition) at 200 ppm [1] | percent effect (mortality or growth inhibition) at 200 ppm [4] | percent control (mortality, anti-feedant effect or growth inhibition) at 200 ppm [5]

CCS(=O)(=O)c1c(N2Cc3ccc(C4(C#N)CC4)cc3C2=O)nn2ccc(C(F)(F)F)cc12 [P3, 1-[2-[3-ethylsulfonyl-5-(trifluoromethyl)pyrazolo[1,5-a]pyridin-2-yl]-3-oxo-isoindolin-5-yl]cyclopropanecarbonitrile]
≥ 80%: percent control (mortality, anti-feedant effect or growth inhibition) at 200 ppm [1] | mortality at 200 ppm [9] | percent effect (mortality or growth inhibition) at 200 ppm [2] | percent effect (mortality or growth inhibition) at 200 ppm [4] | percent control (mortality, anti-feedant effect or growth inhibition) at 200 ppm [5]
